Results from paper PMC6066988 (Frontiers in Microbiology, 2018).
Where two headings read alike, the source gives them in different places.

Key:
[1] = biological target: T1, DNA topoisomerase I (MtbTopoI) (Mycobacterium tuberculosis, UniProt P9WG49); type: biochemical
T1 construct: gene topA

[2] = biological target: T1, DNA topoisomerase I (MtbTopoI); experiment: […]; also inhibits cleavage of a 32-mer single-stranded DNA; type: biochemical

T1 sequence (P9WG49 whole entry): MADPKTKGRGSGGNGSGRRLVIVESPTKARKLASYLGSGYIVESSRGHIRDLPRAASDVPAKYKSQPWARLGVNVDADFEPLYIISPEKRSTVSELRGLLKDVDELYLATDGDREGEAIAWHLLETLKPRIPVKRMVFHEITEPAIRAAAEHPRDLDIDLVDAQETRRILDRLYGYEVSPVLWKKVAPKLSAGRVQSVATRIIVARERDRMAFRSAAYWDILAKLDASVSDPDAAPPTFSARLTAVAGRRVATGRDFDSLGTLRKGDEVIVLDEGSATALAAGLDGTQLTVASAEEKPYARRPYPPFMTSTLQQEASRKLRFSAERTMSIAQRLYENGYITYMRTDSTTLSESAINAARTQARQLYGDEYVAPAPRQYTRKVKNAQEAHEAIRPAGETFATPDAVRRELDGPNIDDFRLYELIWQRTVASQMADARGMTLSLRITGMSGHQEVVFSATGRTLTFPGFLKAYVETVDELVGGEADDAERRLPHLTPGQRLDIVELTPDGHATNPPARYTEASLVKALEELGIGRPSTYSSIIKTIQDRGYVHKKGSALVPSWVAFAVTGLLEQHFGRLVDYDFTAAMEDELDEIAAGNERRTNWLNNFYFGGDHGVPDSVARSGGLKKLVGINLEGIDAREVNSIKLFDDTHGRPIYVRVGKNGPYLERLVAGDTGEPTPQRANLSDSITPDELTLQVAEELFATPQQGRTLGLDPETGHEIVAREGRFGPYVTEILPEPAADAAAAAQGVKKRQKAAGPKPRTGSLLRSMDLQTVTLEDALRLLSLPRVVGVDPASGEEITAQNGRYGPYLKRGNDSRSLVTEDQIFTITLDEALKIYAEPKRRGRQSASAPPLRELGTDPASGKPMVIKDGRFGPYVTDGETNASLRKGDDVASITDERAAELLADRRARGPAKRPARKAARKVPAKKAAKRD

Row | SMILES | IC50 [1] | IC50 [2]
1 | CN(C)CCc1cc2c(c3c1ccc1cc4c(cc13)OCO4)OCO2 [N-SCN, N-methyl-seconeolitsine] | 5.6 ± 0.8 µM | –
2 | CNCCc1cc2c(c3c1ccc1cc4c(cc13)OCO4)OCO2 [SCN, seconeolitsine] | – | 8.4 ± 0.3 µM
